Results: patent publication EP4803517A1, “PROTEIN TRANSLATION INHIBITOR” (Duality Biologics (Shanghai) Co., Ltd., priority 2023, dated 2025)
Like-named read-outs stand apart in the source and are kept apart here. Each block holds one molecule with its values, some of them ahead of it.

How the values were obtained:
Test in all cases: Inhibition of in vitro proliferation of tumor cells (CTG, CellTiter-Glo)
Assay type in all cases: cell-based
DLD-1 = settings: Homo sapiens, 120 h, DLD-1 cells, 5 days of culture, CTG reagent, read-out: Proliferation inhibitory activity IC50 (nM) DLD-1
Protocol: (§1) Assay objective: To detect the inhibitory effects of the drug compounds on tumor cell proliferation, for example, the inhibitory activity thereof on the in vitro proliferation of NCI-H716, NCI-H1975, NCI-H1373, NCI-H647, NCI-H520, BT474, DLD-1, NCI-N87, NUGC-4, SNU-423, MKN-45, SK-OV-3, OVCAR3, Ls174T, HCC1954, and ES2 tumor cells. The cells were treated with the compounds at different concentrations in vitro. After 5 days of culture, the proliferation of the cells was detected using the CTG (CellTiter-Glo® Luminescent Cell Viability Assay, Promega, Cat. No. G7558) reagent, and the in vitro activity of the compounds was evaluated based on the IC50 value. 1. Cell preparation: NCI-H716, NCI-H1975, NCI-H1373, NCI-H647, NCI-H520, BT474, DLD-1, NCI-N87, NUGC-4, SNU-423, MKN-45, SK-OV-3, OVCAR3, Ls174T, HCC1954, and ES2 cells in the logarithmic phase were each taken, washed once with PBS, and then digested with 2-3 mL of trypsin for 2-3 min. After the cells were digested completely, 10-15 mL of a cell culture medium was added to elute the digested cells. The eluate was centrifuged at 1000 rpm for 5 min, and the supernatant was discarded. Subsequently, the resulting cells were resuspended in 10-20 mL of the cell culture medium to prepare a single-cell suspension. 2. Cell plating: The NCI-H716, NCI-H1975, NCI-H1373, NCI-H647, NCI-H520, NCI-N87, BT474, DLD-1, NCI-N87, NUGC-4, SNU-423, MKN-45, SK-OV-3, OVCAR3, Ls174T, HCC1954, and ES2 single-cell suspensions were each well mixed and adjusted to a viable cell density of 6 × 10^4 cells/mL with the cell culture medium. The density-adjusted cell suspensions were each well mixed and added to a 96-well cell culture plate at 50 µL/well. The culture plate was incubated in an incubator overnight (37 °C, 5% CO2). 3. Compound preparation: Each compound was dissolved in DMSO to prepare a stock solution with an initial concentration of 10 mM. There were 6 concentrations in total for the small molecule compound: 1000 nM, 333 nM, 111 nM, 37.03 nM, 12.34 nM, and 4.11 nM. 4. Sample addition: The prepared test samples at different concentrations were added to the culture plate, with two duplicate wells set for each sample. The culture plate was incubated in the incubator for 5 days (37 °C, 5% CO2). 5. Color development: The 96-well cell culture plate was taken out, and 50 µL of the CTG reagent was added to each well. The plate was then incubated at room temperature for 10 min. 6. Plate reading: The 96-well cell culture plate was taken out and placed in a microplate reader, and the chemiluminescence was measured using the microplate reader. 7. Data analysis: The cell viability was calculated according to the formula: (Lumtest drug - Lumblank control)/(Lumsolvent blank control - Lumblank control) × 100%. Using a nonlinear regression model in the GraphPad Prism software, a sigmoidal dose-survival rate curve was plotted, and the IC50 values were calculated. Table 2. IC50 values for the inhibition of the in vitro proliferation of tumor cells by the racemates of the small molecule compounds of the present application

BT474 = settings: Homo sapiens, BT-474, 120 h, 5 days of culture, CTG reagent, read-out: Proliferation inhibitory activity IC50 (nM) BT474
Protocol: as §1

MKN-45 = settings: Homo sapiens, 120 h; racemates; MKN-45 cells; 5 days of culture; CTG reagent; read-out: Proliferation inhibitory activity IC50 (nM) MKN-45
Protocol: as §1

Ls174T = settings: Homo sapiens, 120 h, racemates, 5 days of culture, CTG reagent, read-out: Proliferation inhibitory activity IC50 (nM) Ls174T
Protocol: as §1

NCI-N87 = settings: Homo sapiens, 120 h, racemates, 5 days of culture, CTG reagent, read-out: Proliferation inhibitory activity IC50 (nM) NCI-N87
Protocol: as §1

NUGC-4 = settings: Homo sapiens, 120 h; racemates; NUGC-4 cells; 5 days of culture; CTG reagent; read-out: Proliferation inhibitory activity IC50 (nM) NUGC-4
Protocol: as §1

SK-OV-3 = settings: Homo sapiens, 120 h; racemates; SK-OV-3 cells; 5 days of culture; CTG reagent; read-out: Proliferation inhibitory activity IC50 (nM) SK-OV-3
Protocol: as §1

SNU-423 = settings: Homo sapiens, 120 h; racemates; SNU-423 cells; 5 days of culture; CTG reagent; read-out: Proliferation inhibitory activity IC50 (nM) SNU-423
Protocol: as §1

HCC1954 = settings: Homo sapiens, 120 h, racemates, 5 days of culture, CTG reagent, read-out: Proliferation inhibitory activity IC50 (nM) HCC1954
Protocol: as §1

[1] = Table 3, chirally resolved compounds

IC50 (DLD-1; racemates): 2.16 nM
SMILES: COc1ccc([C@@]23Oc4cc(-c5ncco5)cc(OC)c4[C@]2(O)[C@@H](CNC(=O)COCCO)C[C@H]3c2ccccc2)cc1 (racemic) [Racemate of compound 91]

IC50 (BT474; [1]): < 10 nM | IC50 (DLD-1; [1]): < 10 nM
SMILES: COc1cc(-c2ncco2)cc2c1[C@]1(O)[C@H](O)[C@H](C(=O)N(C)OC)[C@@H](c3cccc(N)c3)[C@]1(c1ccc(C#N)cc1)O2 [Compound 4]

IC50 (BT474; racemates): 0.829 nM | IC50 (MKN-45): 0.695 nM
SMILES: COc1ccc([C@@]23Oc4cc(-c5ncco5)cc(OC)c4[C@]2(O)[C@@H](CN)[C@H](CO)[C@H]3c2ccccc2)cc1 (racemic) [Racemate of compound 9]

IC50 (BT474; [1]): < 10 nM | IC50 (DLD-1; [1]): < 10 nM
SMILES: COc1ccc([C@@]23Oc4cc(-c5ncco5)cc(OC)c4[C@]2(O)[C@@H](N(C)C)C[C@H]3c2cccc(N)c2)cc1 (single isomer, unassigned) [Compound 98]

IC50 (Ls174T): 5.45 nM
SMILES: COc1cc(-c2ncc(C(F)(F)F)cn2)cc2c1[C@]1(O)[C@H](O)[C@H](C(=O)N(C)OC)[C@@H](c3cccc(N)c3)[C@]1(c1ccc(C#N)cc1)O2 (racemic) [Racemate of compound 32]

IC50 (DLD-1; racemates): 2.35 nM
SMILES: COc1ccc([C@@]23Oc4cc(-c5ncco5)ccc4[C@]2(O)[C@H](O)[C@H](C(=O)N(C)C)[C@H]3c2ccccc2)cc1 (racemic) [Racemate of compound 57]

IC50 (BT474; racemates): 2.25 nM
SMILES: COc1ccc([C@@]23Oc4cc(-c5ncco5)cc(OC)c4[C@]2(O)[C@H](O)[C@H](C(=O)N2CC(O)C2)[C@H]3c2ccccc2)cc1 (racemic) [Racemate of compound 48]

IC50 (BT474; racemates): 3.33 nM | IC50 (NCI-N87): 2.07 nM | IC50 (NUGC-4): 1.98 nM | IC50 (SK-OV-3): 2.05 nM | IC50 (SNU-423): 3.67 nM
SMILES: COC(=O)[C@H]1[C@@H](O)[C@@]2(O)c3c(OC)cc(-c4ncco4)cc3O[C@@]2(c2ccc(C#N)cc2)[C@@H]1c1cccc(N)c1 (racemic) [Racemate of compound 2]

IC50 (MKN-45): 1.32 nM
SMILES: COc1cnc(-c2cc(OC)c3c(c2)O[C@@]2(c4ccc(C#N)cc4)[C@H](c4cccc(N)c4)[C@@H](C(=O)N(C)OC)[C@@H](O)[C@@]32O)nc1 (racemic) [Racemate of compound 31]

IC50 (MKN-45): 2 nM
SMILES: COc1cnc(-c2cc(OC)c3c(c2)O[C@@]2(c4ccc(C#N)cc4)[C@H](c4cccc(N)c4)[C@@H](C(=O)N(C)OC)[C@@H](O)[C@@]32O)cn1 (racemic) [Racemate of compound 43]

IC50 (MKN-45): 2.65 nM
SMILES: COc1cc(-c2ncco2)cc2c1[C@]1(O)[C@H](O)[C@H](C(=O)N(C)OC)[C@@H](c3cccc(O)c3)[C@]1(c1ccc(C#N)cc1)O2 (racemic) [Racemate of compound 15]

IC50 (DLD-1; racemates): 0.92 nM
SMILES: COc1ccc([C@@]23Oc4cc(-c5nc(CO)co5)cc(OC)c4[C@]2(O)[C@@H](N(C)C)C[C@H]3c2ccccc2)cc1 (racemic) [Racemate of compound 107]

IC50 (DLD-1; racemates): 1.35 nM
SMILES: COc1ccc([C@@]23Oc4cc(-c5ncco5)cc(OC)c4[C@]2(O)[C@@H](CNC(=O)[C@H](CO)N(C)C)C[C@H]3c2ccccc2)cc1 (racemic) [Racemate of compound 89]

SMILES: COc1ccc([C@@]23Oc4cc(OC)cc(OC)c4[C@]2(O)[C@H](O)[C@H](C(=O)N(C)C)[C@H]3c2ccccc2)cc1 [Rocaglamide, reference compound]
IC50 (BT474; racemates): 5.49 nM | IC50 (DLD-1; racemates): 8.19 nM | IC50 (HCC1954): 2.66 nM | IC50 (Ls174T): 6.08 nM | IC50 (MKN-45): 5.75 nM | IC50 (NCI-N87): 9.32 nM | IC50 (NUGC-4): 8.25 nM | IC50 (SK-OV-3): 8.52 nM | IC50 (SNU-423): 14.4 nM

IC50 (HCC1954): 1.5 nM
SMILES: COc1ccc([C@@]23Oc4cc(-c5ncco5)cc(OC)c4[C@]2(O)[C@@H](CNC(=O)CN(C)C)C[C@H]3c2cccc(N)c2)cc1 (racemic) [Racemate of compound 93]

IC50 (BT474; [1]): < 10 nM
SMILES: COc1ccc([C@@]23Oc4cc(-c5ncco5)cc(OC)c4[C@]2(O)[C@H](O)C[C@H]3c2cccc(N)c2)cc1 (single isomer, unassigned) [Compound 49]

IC50 (HCC1954): 2.98 nM
SMILES: COc1cc(-c2cscn2)cc2c1[C@]1(O)[C@H](O)[C@H](C(=O)N(C)C)[C@@H](c3cccc(N)c3)[C@]1(c1ccc(C#N)cc1)O2 (racemic) [Racemate of compound 111]

IC50 (BT474; [1]): < 10 nM | IC50 (DLD-1; [1]): < 10 nM
SMILES: COc1ccc([C@@]23Oc4cc(-c5ncco5)cc(OC)c4[C@]2(O)[C@@H](CNC(=O)CN(C)C)C[C@H]3c2cccc(N)c2)cc1 (single isomer, unassigned) [Compound 93]

IC50 (DLD-1; racemates): 2.99 nM | IC50 (HCC1954): 2.15 nM
SMILES: COc1ccc([C@@]23Oc4cc(-c5ncco5)cc(OC)c4[C@]2(O)[C@@H](C#N)C[C@H]3c2cccc(N)c2)cc1 (racemic) [Racemate of compound 86]

IC50 (MKN-45): 2.34 nM
SMILES: COc1cc(-c2ncco2)cc2c1[C@]1(O)[C@H](O)[C@H](C(=O)N3CC(O)C3)[C@@H](c3ccccc3)[C@]1(c1ccc(C#N)cc1)O2 (racemic) [Racemate of compound 16]

IC50 (MKN-45): 1.5 nM
SMILES: COc1cc(-c2ncc(C#N)cn2)cc2c1[C@]1(O)[C@H](O)[C@H](C(=O)N(C)OC)[C@@H](c3cccc(N)c3)[C@]1(c1ccc(C#N)cc1)O2 (racemic) [Racemate of compound 30]

IC50 (DLD-1; racemates): 2.84 nM
SMILES: COc1ccc([C@@]23Oc4cc(-c5ncco5)cc(OC)c4[C@]2(O)[C@@H](CNC(=O)NO)C[C@H]3c2ccccc2)cc1 (racemic) [Racemate of compound 87]

IC50 (BT474; racemates): 3.04 nM | IC50 (MKN-45): 1.4 nM
SMILES: COc1cc(-c2ncco2)cc2c1[C@]1(O)[C@H](O)[C@H](C(=O)N(C)OC)[C@@H](c3cccc(N)c3)[C@]1(c1ccc(C#N)cc1)O2 (racemic) [Racemate of compound 4]

IC50 (NCI-N87): 3.63 nM | IC50 (NUGC-4): 3.51 nM | IC50 (SNU-423): 8.18 nM
SMILES: COC(=O)[C@H]1[C@@H](O)[C@@]2(O)c3c(OC)cc(-c4cnco4)cc3O[C@@]2(c2ccc(C#N)cc2)[C@@H]1c1cccc(N)c1 (racemic) [Racemate of compound 3]
